Key:
Type in all cases: in vivo
[1] = test system: Veronica persica; assay: Post-emergence herbicidal activity against VERPE; conditions: Veronica persica, 504 h, dosage 320 g/ha
Method in brief: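 Greenhouse plants treated at one-leaf stage, 2–3 weeks after sowing, by spraying WP or EC formulations with 0.5% additive at 600 l/ha water. Visual rating about 3 weeks later versus untreated controls (100% = plants dead, 0% = like controls).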

[2] = Post-emergence treatment, summary over harmful plants; conditions: 504 h, application rate of 0.32 kg of active substance or less per hectare, read-out: herbicidal action, post-emergence treatment (very good herbicidal activity)
Method in brief: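 Greenhouse-grown weeds and crops were sprayed at the one-leaf stage (2–3 weeks post-sowing) with WP or EC formulations plus 0.5% additive at 600 l/ha water. About 3 weeks later, activity was visually rated against untreated controls (100% = dead plants, 0% = like control).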

[3] = test system: Polygonum convolvulus; assay: Post-emergence herbicidal activity against POLCO; conditions: Fallopia convolvulus, 504 h, dosage 320 g/ha, rated about 3 weeks after treatment
Method in brief: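 Greenhouse weeds in sandy loam were sprayed at the one-leaf stage, 2–3 weeks after sowing, with WP or EC formulations plus 0.5% additive at 600 l/ha water. About 3 weeks later, damage was rated visually against untreated controls, where 100% means plants dead and 0% means like control.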

[4] = test system: Hordeum murinum; assay: Pre-emergence herbicidal activity against HORMU; conditions: Hordeum murinum, 504 h, dosage 80 g/ha
Source text: (§1) 1. Pre-Emergence Herbicidal Action and Crop Plant Compatibility Seeds of monocotyledonous and dicotyledonous weed plants and crop plants are placed in plastic or wood fiber pots and covered with soil. The compounds of the invention, formulated in the form of wettable powders (WP) or as emulsion concentrates (EC), are then applied onto the surface of the covering soil as aqueous suspension or emulsion with addition of 0.5% additive at a water application rate of 600 l/ha (converted). After the treatment, the pots are placed in a greenhouse and kept under good growth conditions for the trial plants. After about 3 weeks, the effect of the preparations is scored visually in comparison with untreated controls as percentages. For example, 100% activity=the plants have died, 0% activity=like control plants. ECHCG: Echinochloa crus-galli HORMU: Hordeum murinum

[5] = test system: Pharbitis purpurea; assay: Pre-emergence herbicidal activity against PHBPU; conditions: Ipomoea purpurea, 504 h, dosage 80 g/ha
Source text: as §1, with “LOLRI: Lolium rigidum PHBPU: Pharbitis purpurea” for “ECHCG: Echinochloa crus-galli HORMU: Hordeum murinum”

| Structure (SMILES) | pest or weed control at 320 g/ha [1] [%] | pest or weed control at 320 g/ha [2] [%] | pest or weed control at 320 g/ha [3] [%] | pest or weed control at 80 g/ha [4] [%] | pest or weed control at 80 g/ha [5] [%] |
| --- | --- | --- | --- | --- | --- |
| COC(=O)[C@H]1C[C@@H](NC(=O)[C@@]2(C)CC(c3cc(F)cc(F)c3)=NO2)CO1 (mixture of isomers) [I-09, methyl cis-4-[[(5R)-3-(3,5-difluorophenyl)-5-methyl-4H-isoxazole-5-carbonyl]amino]tetrahydrofuran-2-carboxylate] | 80 | 80 to 100 | 80 | – | – |
| COC(=O)[C@H]1C[C@H](NC(=O)[C@@]2(C)CC(c3cc(F)cc(F)c3)=NO2)CO1 (mixture of isomers) [I-55, methyl trans-4-[[(5R)-3-(3,5-difluorophenyl)-5-methyl-4H-isoxazole-5-carbonyl]amino]tetrahydrofuran-2-carboxylate] | 90 | 80 to 100 | 90 | – | – |
| C=C[C@]1(C(=O)N[C@@H]2CO[C@@H](C(=O)OC)C2)CC(c2cc(F)cc(F)c2)=NO1 (mixture of isomers) [I-56, methyl trans-4-[[(5S)-3-(3,5-difluorophenyl)-5-vinyl-4H-isoxazole-5-carbonyl]amino]tetrahydrofuran-2-carboxylate] | 90 | 80 to 100 | 90 | – | – |
| CCOC(=O)[C@H]1C[C@@H](NC(=O)C2(C)CC(c3cccc(F)c3)=NO2)CO1 (mixture of isomers) [I-30, ethyl cis-4-[[(5RS)-3-(3-fluorophenyl)-5-methyl-4H-isoxazole-5-carbonyl]amino]tetrahydrofuran-2-carboxylate] | 80 | 80 to 100 | 80 | 90 | – |
| CC(C)OC(=O)[C@H]1C[C@@H](NC(=O)C2(C)CC(c3cccc(F)c3)=NO2)CO1 (mixture of isomers) [I-32, isopropyl cis-4-[[(5RS)-3-(3-fluorophenyl)-5-methyl-4H-isoxazole-5-carbonyl]amino]tetrahydrofuran-2-carboxylate] | 80 | 80 to 100 | 80 | – | – |
| CC(C)(C)OC(=O)[C@H]1C[C@@H](NC(=O)C2(C)CC(c3cccc(F)c3)=NO2)CO1 (mixture of isomers) [I-33, tert-butyl cis-4-[[(5RS)-3-(3-fluorophenyl)-5-methyl-4H-isoxazole-5-carbonyl]amino]tetrahydrofuran-2-carboxylate] | 80 | 80 to 100 | 80 | 80 | – |
| CC1(C(=O)N[C@H]2CO[C@@H](C(=O)OCc3ccccc3)C2)CC(c2cccc(F)c2)=NO1 (mixture of isomers) [I-34, benzyl cis-4-[[(5RS)-3-(3-fluorophenyl)-5-methyl-4H-isoxazole-5-carbonyl]amino]tetrahydrofuran-2-carboxylate] | 80 | 80 to 100 | – | – | – |
| COC(=O)[C@H]1C[C@@H](NC(=O)C2(C)CC(c3cc(F)cc(F)c3)=NO2)CO1 (relative stereo) [I-01, methyl cis-4-[[3-(3,5-difluorophenyl)-5-methyl-4H-isoxazole-5-carbonyl]amino]tetrahydrofuran-2-carboxylate] | 80 | 80 to 100 | 80 | – | – |
| C=CC1(C(=O)N[C@H]2CO[C@@H](C(=O)OC)C2)CC(c2cc(Cl)cc(Cl)c2)=NO1 (relative stereo) [I-03, methyl cis-4-[[3-(3,5-dichlorophenyl)-5-vinyl-4H-isoxazole-5-carbonyl]amino]tetrahydrofuran-2-carboxylate] | 80 | 80 to 100 | 80 | – | – |
| COC(=O)[C@H]1C[C@@H](NC(=O)C2(C)CC(c3cc(C)cc(Br)c3)=NO2)CO1 (relative stereo) [I-04, methyl cis-4-[[3-(3-bromo-5-methylphenyl)-5-methyl-4H-isoxazole-5-carbonyl]amino]tetrahydrofuran-2-carboxylate] | 80 | 80 to 100 | 80 | – | – |
| COC(=O)[C@H]1C[C@@H](NC(=O)C2(OC)CC(c3cc(F)cc(F)c3)=NO2)CO1 (relative stereo) [I-05, methyl cis-4-[[3-(3,5-difluorophenyl)-5-methoxy-4H-isoxazole-5-carbonyl]amino]tetrahydrofuran-2-carboxylate] | 80 | 80 to 100 | 90 | – | – |
| C=CC1(C(=O)N[C@H]2CO[C@@H](C(=O)OC)C2)CC(c2cccc(F)c2)=NO1 (relative stereo) [I-07, methyl cis-4-[[3-(3-fluorophenyl)-5-vinyl-4H-isoxazole-5-carbonyl]amino]tetrahydrofuran-2-carboxylate] | 80 | 80 to 100 | 80 | – | – |
| COC(=O)[C@H]1C[C@@H](NC(=O)C2(OC)CC(c3cc(C)cc(Br)c3)=NO2)CO1 (relative stereo) [I-08, methyl cis-4-[[3-(3-bromo-5-methylphenyl)-5-methoxy-4H-isoxazole-5-carbonyl]amino]tetrahydrofuran-2-carboxylate] | 80 | 80 to 100 | 80 | – | – |
| COC(=O)[C@H]1C[C@@H](NC(=O)C2(OC)CC(c3ccccc3)=NO2)CO1 (relative stereo) [I-14, methyl cis-4-[(5-methoxy-3-phenyl-4H-isoxazole-5-carbonyl)amino]tetrahydrofuran-2-carboxylate] | 80 | 80 to 100 | 90 | – | – |
| C=CC1(C(=O)N[C@H]2CO[C@@H](C(=O)O)C2)CC(c2cc(F)cc(F)c2)=NO1 (relative stereo) [I-21, cis-4-[[3-(3,5-difluorophenyl)-5-vinyl-4H-isoxazole-5-carbonyl]amino]tetrahydrofuran-2-carboxylic acid] | 100 | 80 to 100 | – | – | 80 |
| COC(=O)C1COCC1NC(=O)C1(C)CC(c2cc(F)cc(F)c2)=NO1 (stereo not shown) [I-19, methyl 4-[[3-(3,5-difluorophenyl)-5-methyl-4H-isoxazole-5-carbonyl]amino]tetrahydrofuran-3-carboxylate] | 80 | 80 to 100 | 80 | – | – |
| C=CC1(C(=O)NC2=C(C(=O)OCC)COC2)CC(c2cc(F)cc(F)c2)=NO1 (stereo not shown) [I-23, ethyl 4-[[3-(3,5-difluorophenyl)-5-vinyl-4H-isoxazole-5-carbonyl]amino]-2,5-dihydrofuran-3-carboxylate] | – | 80 to 100 | 90 | – | – |
| COC(=O)C1COCC1NC(=O)C1(OC)CC(c2cc(Cl)cc(Cl)c2)=NO1 (stereo not shown) [I-29, methyl 4-[[3-(3,5-dichlorophenyl)-5-methoxy-4H-isoxazole-5-carbonyl]amino]tetrahydrofuran-3-carboxylate] | 90 | 80 to 100 | 80 | – | – |
| COC(=O)C1=C[C@H](NC(=O)C2(C)CC(c3cccc(F)c3)=NO2)CO1 (stereo partly drawn) [I-39, methyl (3S)-3-[[3-(3-fluorophenyl)-5-methyl-4H-isoxazole-5-carbonyl]amino]-2,3-dihydrofuran-5-carboxylate] | 80 | – | 80 | 100 | – |
| COC(=O)C1=C[C@@H](NC(=O)C2(C)CC(c3cccc(F)c3)=NO2)CO1 (stereo partly drawn) [I-46, methyl (3R)-3-[[3-(3-fluorophenyl)-5-methyl-4H-isoxazole-5-carbonyl]amino]-2,3-dihydrofuran-5-carboxylate] | 80 | 80 to 100 | 80 | 100 | – |
| COC(=O)[C@@]1(OC)C[C@@H](NC(=O)C2(C)CC(c3cccc(F)c3)=NO2)CO1 (stereo partly drawn) [I-47, methyl (2R,4R)-4-[[3-(3-fluorophenyl)-5-methyl-4H-isoxazole-5-carbonyl]amino]-2-methoxytetrahydrofuran-2-carboxylate] | 80 | – | 80 | 90 | – |
